Experiment [1] concerns H4. Briefly: Luminescence Cell-Based Dose Response HTS to Identify Activators of 5'UTR Stem-Loop Driven Prion Protein mRNA Translation in H4 Neuroglioblastoma Cells. [Related pubchem assays: 1829 (Project Summary), 1814 (Primary HTS)]. The experiment is classed as functional. The conditions noted are these: Homo sapiens.
The nature of experiment [2]: Luminescence Cell-Based Dose Confirmation HTS to Identify Activators of 5'UTR Stem-Loop Driven Alpha-Synuclein mRNA Translation in H4 Neuroglioblastoma Cells. [Related pubchem assays: 1829 (Project Summary), 1814 (Primary HTS)]. The experiment is classed as functional.
A short description of experiment [3]: Luminescence Cell-Based Dose Response HTS to Identify Activators of Luciferase Translation or Activity in H4 […] Cells. [Related pubchem assays: 1829 (Project Summary), 1814 (Primary HTS)]. It counts as functional.
Experiment [4] deals with Galanin receptor type 2 (Homo sapiens, UniProt O43603). The experiment is described as follows: Dose Response cell-based high-throughput screening assay to identify antagonists of galanin receptor 2 (GALR2). [Related pubchem assays: 828, 866 ]. The experiment is classed as functional.
Experiment [5] in a line: DRD fibroblast viability loss – cell-based, non-viral oncogenic, luminescence, dose response (AID 1934). The experiment is classed as functional. Particulars: Homo sapiens.
Experiment [6] deals with INS1. Briefly: INS-1E survival protection against cytokine death – cell-based, luminescence, retest, dose response (AID 449756).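 Further: cell death triggered by IL-1 beta plus TNF-alpha plus IFN-gamma mixture; protective hits raise ATP signal compared with cytokine alone wells.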 It counts as functional. The conditions noted are these: Rattus norvegicus.
The test system of experiment [7] is BJ. Briefly: cells. The conditions noted are these: Homo sapiens. The experiment is classed as functional, cell-based.
Experiment [8] in a line: viability of HCT116 lacking mutant beta-catenin – cell-based, human colon tumor, dose response (AID 1045).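 Further: HCT116 colon tumor cells with beta catenin knocked out; cells exposed to compound for 60 hours.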 The experiment is classed as functional.
Experiment [9] can be described thus: Luminescence Cell-Based Dose Confirmation HTS to Identify Inhibitors of Polyadenylation. It counts as functional.
Experiment [10] in a line: viability of PTEN-deleted HCT116 cells – cell-based, HCT116 PTEN knockout, dose response (AID 1047).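 Further: HCT116 colon tumor cells with PTEN knocked out; cells exposed to compound for 60 hours before readout; potency for loss of cell viability measured by luminescence.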 The experiment is classed as functional.
Experiment [11] concerns BJ. The experiment is described as follows: BJ-TERT-LT-ST fibroblast viability loss – cell-based, RAS-independent, luminescence, dose response (AID 1935).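 Further: BJ fibroblasts immortalized with TERT plus LT and ST oncogenes.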 The experiment is classed as functional. The conditions noted are these: Homo sapiens.
The test system of experiment [12] is BJ. The experiment is described as follows: BJ-TERT fibroblast viability loss – cell-based, RAS-independent, luminescence, dose response (AID 1933). It counts as functional. Particulars: Homo sapiens.
Experiment [13] deals with Transitional endoplasmic reticulum ATPase (Homo sapiens, UniProt P55072). The experiment is described as follows: Luminescence dose response biochemical high throughput screening assay for inhibitors of the p97 ATPase: synthesized compounds. [Related pubchem assays: 1481, 1517 ].
In experiment [14] the target is Transitional endoplasmic reticulum ATPase (Homo sapiens, UniProt P55072, C522A). Briefly: Luminescence counterscreen assay for p97 inhibitors: dose response biochemical high throughput screening assay to identify inhibitors of the C522A mutant p97 ATPase: synthesized compounds. [Related pubchem assays: 1481, 1517, 1551 ].
For experiment [15], the target named is Protein-tyrosine kinase 2-beta (Homo sapiens, UniProt Q14289).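 Further: potency of inhibitors of PYK2 kinase phosphorylation of poly-GT substrate.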
Experiment [16] has as its system HeLa. The experiment is described as follows: Cytotoxicity counterscreen assay for transcriptional activators of heat shock protein 70 (Hsp70). [Related pubchem assays: 1203, 1252 ]. The experiment is classed as functional. The conditions noted are these: Homo sapiens.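 Further: cells exposed to compound for 16 hours before readout.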
The nature of experiment [17]: cells. It counts as functional.
Experiment [18] can be described thus: Vero E6 cell cytotoxicity, dose response, cytotoxicity control for non-replicating M. tuberculosis project, secondary assay (AID 492998). The experiment is classed as functional, VeroE6. Particulars: Vero C1008.
The target in experiment [19] is T1, Neuropeptide Y receptor type 1 (Homo sapiens, UniProt P25929). The experiment is described as follows: IC50 of human NPY-Y1 blockers – cell-based, dose response (AID 1277). It counts as functional.
Experiment [20] concerns the target T2, Neuropeptide Y receptor type 2 (Homo sapiens, UniProt P49146). Briefly: IC50 for human NPY-Y2 blockade – cell-based, counter-screen for NPY-Y1 antagonist project, dose response (AID 1278). The experiment is classed as functional.
The target of experiment [21] is T1, Neuropeptide Y receptor type 1. The experiment is classed as functional.
In experiment [22] the target is T2, Neuropeptide Y receptor type 2. It counts as functional, cell-based.
For experiment [23], the target named is T3, Estrogen receptor (Homo sapiens, UniProt P03372).
T3 sequence (P03372 whole entry): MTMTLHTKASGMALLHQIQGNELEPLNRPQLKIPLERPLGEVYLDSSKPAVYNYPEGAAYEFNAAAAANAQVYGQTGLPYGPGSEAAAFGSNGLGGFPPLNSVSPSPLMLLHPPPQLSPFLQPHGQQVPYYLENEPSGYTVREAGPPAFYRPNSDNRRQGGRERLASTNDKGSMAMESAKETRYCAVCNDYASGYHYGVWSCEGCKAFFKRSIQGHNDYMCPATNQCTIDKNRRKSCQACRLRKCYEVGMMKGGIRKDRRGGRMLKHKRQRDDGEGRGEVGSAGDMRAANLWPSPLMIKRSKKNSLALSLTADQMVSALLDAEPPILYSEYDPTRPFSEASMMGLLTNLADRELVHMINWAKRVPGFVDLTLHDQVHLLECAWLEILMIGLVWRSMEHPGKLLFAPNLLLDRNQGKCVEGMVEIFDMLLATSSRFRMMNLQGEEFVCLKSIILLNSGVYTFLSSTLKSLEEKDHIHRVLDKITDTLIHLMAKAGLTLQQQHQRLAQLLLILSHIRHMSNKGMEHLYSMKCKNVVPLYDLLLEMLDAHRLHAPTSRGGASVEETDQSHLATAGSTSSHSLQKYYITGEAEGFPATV
Briefly: ERα coactivator recruitment enhancers – biochemical, TR-FRET, ERα LBD, dose response (AID 737).

Experiment [24] deals with Lytic switch protein BZLF1 (Epstein-Barr virus (strain B95-8) (HHV-4) (Human herpesvirus 4), UniProt P03206). Briefly: inhibition of BZLF1 ZTA DNA binding – biochemical, fluorescence polarization, Epstein-Barr virus, 1536-well, counter-screen for EBNA-1 inhibitor project, dose response (AID 2377).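 Further: fluorescence polarization of Cy5-labelled ZRE DNA probe bound by purified Zta.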 Also noted: species or system human gammaherpesvirus 4.
Experiment [25] deals with Epstein-Barr nuclear antigen 1 (Epstein-Barr virus (strain B95-8) (HHV-4) (Human herpesvirus 4), UniProt P03211). The experiment is described as follows: inhibition of EBV nuclear antigen 1 DNA binding – biochemical, fluorescence polarization, 1536-well, dose response (AID 2381).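 Further: fluorescence polarization of a Cy5 DNA probe bound by EBNA-1 protein.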 The arrangement: species or system human gammaherpesvirus 4.
Experiment [26] can be described thus: mitochondrial function rescue without frataxin homolog – Friedreich's ataxia, plus single-dose screen, dose response (AID 1465).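 Further: yeast depleted of Yfh1p frataxin homolog grown on glycerol needing respiration; WST-1 tetrazolium dye reduction as measure of cellular dehydrogenase metabolic activity.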 The experiment is classed as functional.
Experiment [27] can be described thus: M. tuberculosis H37Rv growth inhibitors, H37Rv strain (AID 1626). The experiment is classed as functional.
Experiment [28] addresses T4, Mannose-6-phosphate isomerase (Homo sapiens, UniProt P34949).
T4 sequence (P34949 whole entry): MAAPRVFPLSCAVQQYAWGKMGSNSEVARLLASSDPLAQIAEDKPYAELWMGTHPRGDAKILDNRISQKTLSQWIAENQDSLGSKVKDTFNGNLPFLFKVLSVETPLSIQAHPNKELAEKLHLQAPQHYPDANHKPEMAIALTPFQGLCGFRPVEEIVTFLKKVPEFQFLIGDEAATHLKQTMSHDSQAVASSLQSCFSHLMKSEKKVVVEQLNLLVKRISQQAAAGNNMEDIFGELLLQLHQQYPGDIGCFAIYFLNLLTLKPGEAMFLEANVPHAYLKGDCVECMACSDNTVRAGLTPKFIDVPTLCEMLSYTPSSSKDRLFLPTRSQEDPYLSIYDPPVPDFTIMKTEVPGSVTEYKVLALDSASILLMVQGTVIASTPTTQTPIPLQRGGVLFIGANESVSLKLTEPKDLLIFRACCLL
Briefly: MPI enzyme activity inhibition – biochemical, fluorescence intensity, coupled assay, primary screen (AID 1209).

The target in experiment [29] is FAD-linked sulfhydryl oxidase ALR (Homo sapiens, UniProt P55789). The experiment is described as follows: ALR-catalysed DTT oxidation blockers – biochemical, H2O2 detection, luminescence, cherry-pick, dose response (AID 493248).
The target in experiment [30] is T4, Mannose-6-phosphate isomerase. The experiment is described as follows: MPI inhibition at elevated mannose 6-phosphate – biochemical, fluorescence intensity, high mannose 6-phosphate, primary screen (AID 1220).
The target in experiment [31] is NADPH oxidase 1 (Homo sapiens, UniProt Q9Y5S8). It counts as functional, cell-based.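 Further: Cell-based assay with luminescence read-out, IC50 derived from inhibitor dose-response curves; intracellular ROS from endogenous NOX1 in intact HT29 colon cancer cells; potency of inhibitors that lower the ROS luminescence signal.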

Molecules are shown by their SMILES. Active and inactive are the calls of the source.

T1 sequence (P25929 whole entry): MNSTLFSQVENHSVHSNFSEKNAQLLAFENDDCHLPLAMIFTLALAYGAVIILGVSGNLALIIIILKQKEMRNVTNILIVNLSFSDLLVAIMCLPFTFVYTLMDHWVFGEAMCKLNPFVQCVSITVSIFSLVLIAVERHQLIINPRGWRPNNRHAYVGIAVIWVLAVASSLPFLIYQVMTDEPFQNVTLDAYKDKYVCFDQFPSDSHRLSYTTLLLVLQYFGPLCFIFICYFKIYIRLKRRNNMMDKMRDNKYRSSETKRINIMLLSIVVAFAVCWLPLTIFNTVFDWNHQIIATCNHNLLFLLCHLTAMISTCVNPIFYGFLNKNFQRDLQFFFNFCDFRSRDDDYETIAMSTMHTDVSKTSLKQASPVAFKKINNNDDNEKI
T2 sequence (P49146 whole entry): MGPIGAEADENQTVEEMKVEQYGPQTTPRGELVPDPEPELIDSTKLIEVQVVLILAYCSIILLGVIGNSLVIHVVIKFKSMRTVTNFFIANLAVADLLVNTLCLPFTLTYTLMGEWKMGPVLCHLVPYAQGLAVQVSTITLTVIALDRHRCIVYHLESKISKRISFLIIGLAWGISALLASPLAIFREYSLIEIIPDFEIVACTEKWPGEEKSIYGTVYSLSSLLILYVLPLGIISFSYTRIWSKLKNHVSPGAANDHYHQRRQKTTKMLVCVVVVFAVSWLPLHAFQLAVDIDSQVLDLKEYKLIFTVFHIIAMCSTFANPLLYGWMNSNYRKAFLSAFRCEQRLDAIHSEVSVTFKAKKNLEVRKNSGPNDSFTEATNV
Chain of NADPH oxidase 1 (Q9Y5S8 whole entry): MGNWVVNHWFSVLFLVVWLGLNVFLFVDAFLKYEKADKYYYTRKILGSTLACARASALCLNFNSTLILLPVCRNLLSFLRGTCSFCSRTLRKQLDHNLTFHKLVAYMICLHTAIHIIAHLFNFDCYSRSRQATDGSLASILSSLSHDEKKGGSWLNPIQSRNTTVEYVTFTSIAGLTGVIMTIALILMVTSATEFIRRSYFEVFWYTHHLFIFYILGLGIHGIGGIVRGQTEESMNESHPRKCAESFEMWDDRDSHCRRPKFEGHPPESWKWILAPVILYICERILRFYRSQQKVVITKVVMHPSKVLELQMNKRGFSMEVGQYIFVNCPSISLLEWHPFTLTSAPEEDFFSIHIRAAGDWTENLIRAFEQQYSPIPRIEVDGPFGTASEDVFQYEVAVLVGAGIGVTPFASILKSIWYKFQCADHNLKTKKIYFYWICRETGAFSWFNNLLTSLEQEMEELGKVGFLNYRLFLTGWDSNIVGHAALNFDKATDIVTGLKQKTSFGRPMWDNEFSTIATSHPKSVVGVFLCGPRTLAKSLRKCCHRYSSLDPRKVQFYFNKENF
Chain of Transitional endoplasmic reticulum ATPase (Homo sapiens, UniProt P55072) (P55072 whole entry): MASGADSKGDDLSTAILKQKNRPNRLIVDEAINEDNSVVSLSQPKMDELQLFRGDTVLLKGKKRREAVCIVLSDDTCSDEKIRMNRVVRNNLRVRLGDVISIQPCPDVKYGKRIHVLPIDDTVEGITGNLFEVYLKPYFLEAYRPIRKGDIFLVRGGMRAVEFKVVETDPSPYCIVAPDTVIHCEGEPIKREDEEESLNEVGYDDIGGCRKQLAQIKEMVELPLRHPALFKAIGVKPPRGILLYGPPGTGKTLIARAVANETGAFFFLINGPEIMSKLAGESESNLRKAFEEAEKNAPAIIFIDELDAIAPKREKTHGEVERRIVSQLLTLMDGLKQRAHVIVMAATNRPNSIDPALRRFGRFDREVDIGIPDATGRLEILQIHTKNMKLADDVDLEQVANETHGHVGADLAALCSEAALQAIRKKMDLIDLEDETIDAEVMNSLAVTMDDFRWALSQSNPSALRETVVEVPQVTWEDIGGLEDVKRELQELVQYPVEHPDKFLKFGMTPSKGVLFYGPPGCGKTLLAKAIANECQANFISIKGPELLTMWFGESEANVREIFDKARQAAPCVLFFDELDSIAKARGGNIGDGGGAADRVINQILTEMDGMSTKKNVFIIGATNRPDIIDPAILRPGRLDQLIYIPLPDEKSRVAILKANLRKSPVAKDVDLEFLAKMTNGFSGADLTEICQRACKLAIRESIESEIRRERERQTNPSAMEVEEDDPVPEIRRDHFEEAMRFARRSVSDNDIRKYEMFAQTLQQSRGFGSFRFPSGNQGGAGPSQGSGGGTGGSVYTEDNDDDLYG
Chain of Epstein-Barr nuclear antigen 1 (P03211 whole entry): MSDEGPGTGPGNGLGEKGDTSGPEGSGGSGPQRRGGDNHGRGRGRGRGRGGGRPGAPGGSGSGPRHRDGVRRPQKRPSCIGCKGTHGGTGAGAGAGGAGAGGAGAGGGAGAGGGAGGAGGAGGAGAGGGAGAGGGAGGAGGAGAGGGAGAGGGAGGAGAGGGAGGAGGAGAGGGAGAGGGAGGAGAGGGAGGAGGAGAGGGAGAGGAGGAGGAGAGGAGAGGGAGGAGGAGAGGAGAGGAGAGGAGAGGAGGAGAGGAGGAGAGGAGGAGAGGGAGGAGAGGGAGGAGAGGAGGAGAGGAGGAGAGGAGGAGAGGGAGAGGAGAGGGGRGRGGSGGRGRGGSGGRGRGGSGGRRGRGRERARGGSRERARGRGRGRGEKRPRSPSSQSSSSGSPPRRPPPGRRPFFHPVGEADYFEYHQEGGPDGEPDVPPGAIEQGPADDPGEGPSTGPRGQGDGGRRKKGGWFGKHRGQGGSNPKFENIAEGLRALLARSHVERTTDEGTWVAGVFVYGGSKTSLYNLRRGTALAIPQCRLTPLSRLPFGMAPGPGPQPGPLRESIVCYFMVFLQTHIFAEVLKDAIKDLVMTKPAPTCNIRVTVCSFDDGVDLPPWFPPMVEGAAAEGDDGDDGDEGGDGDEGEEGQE
Chain of FAD-linked sulfhydryl oxidase ALR (P55789 whole entry): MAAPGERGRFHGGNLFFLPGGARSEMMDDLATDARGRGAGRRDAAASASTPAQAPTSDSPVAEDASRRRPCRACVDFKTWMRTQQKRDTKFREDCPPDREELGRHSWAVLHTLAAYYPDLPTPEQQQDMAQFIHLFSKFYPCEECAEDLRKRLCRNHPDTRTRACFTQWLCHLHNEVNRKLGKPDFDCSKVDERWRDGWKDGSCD
Chain of Protein-tyrosine kinase 2-beta (Q14289 whole entry): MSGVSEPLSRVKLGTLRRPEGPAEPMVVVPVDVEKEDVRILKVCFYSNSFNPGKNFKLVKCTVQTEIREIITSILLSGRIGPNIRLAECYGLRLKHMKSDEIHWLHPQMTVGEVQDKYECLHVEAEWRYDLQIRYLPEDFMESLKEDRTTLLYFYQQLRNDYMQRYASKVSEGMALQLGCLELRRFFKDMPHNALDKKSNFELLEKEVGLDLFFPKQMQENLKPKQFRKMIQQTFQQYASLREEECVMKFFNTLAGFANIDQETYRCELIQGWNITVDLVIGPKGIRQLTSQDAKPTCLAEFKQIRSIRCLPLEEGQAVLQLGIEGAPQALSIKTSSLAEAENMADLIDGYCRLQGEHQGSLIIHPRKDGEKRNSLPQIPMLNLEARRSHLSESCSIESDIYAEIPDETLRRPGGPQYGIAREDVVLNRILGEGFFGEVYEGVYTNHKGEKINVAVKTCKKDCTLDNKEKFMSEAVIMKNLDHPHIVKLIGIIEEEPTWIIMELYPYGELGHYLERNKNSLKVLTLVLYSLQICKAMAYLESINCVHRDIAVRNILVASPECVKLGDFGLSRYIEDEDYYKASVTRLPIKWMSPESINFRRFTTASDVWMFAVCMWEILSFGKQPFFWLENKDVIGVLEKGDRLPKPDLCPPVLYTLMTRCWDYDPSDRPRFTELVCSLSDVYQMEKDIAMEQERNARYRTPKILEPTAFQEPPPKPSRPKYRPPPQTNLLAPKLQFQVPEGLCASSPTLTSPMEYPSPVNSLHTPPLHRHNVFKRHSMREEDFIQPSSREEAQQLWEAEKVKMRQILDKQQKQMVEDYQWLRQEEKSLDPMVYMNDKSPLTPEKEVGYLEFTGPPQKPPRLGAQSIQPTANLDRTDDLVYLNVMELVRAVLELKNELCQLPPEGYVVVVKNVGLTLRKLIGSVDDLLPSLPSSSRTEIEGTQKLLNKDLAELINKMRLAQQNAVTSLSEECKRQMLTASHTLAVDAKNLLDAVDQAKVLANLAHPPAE
Chain of Galanin receptor type 2 (O43603 whole entry): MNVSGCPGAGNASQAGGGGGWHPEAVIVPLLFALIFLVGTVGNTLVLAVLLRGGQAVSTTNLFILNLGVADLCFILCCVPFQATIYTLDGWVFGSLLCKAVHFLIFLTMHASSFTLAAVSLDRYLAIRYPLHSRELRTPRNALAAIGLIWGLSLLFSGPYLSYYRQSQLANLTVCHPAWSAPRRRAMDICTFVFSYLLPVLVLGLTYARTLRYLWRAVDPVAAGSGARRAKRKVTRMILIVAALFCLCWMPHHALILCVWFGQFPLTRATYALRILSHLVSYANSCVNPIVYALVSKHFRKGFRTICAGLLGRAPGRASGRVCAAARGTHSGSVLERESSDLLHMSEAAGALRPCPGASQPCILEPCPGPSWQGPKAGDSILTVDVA
Chain of Lytic switch protein BZLF1 (P03206 whole entry): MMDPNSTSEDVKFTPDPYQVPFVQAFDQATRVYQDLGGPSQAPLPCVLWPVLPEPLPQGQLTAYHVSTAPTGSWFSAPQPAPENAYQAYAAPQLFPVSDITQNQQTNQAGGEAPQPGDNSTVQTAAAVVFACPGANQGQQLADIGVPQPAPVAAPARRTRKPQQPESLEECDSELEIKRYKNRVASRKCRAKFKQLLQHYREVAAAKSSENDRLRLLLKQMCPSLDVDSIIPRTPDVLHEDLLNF

For `N#C/C(=C\c1cccs1)c1nc2ccccc2[nH]1`, the figures for the concentration for a half-maximal effect (EC50) in [1], in experiment [2] and in experiment [3] were 15.8 µM (active), 2.67 µM (active) and 26.6 µM (active), respectively. In experiment [4], the concentration for half-maximal inhibition (IC50) is reported as > 42 µM (not active).

For the compound `N#C/C(=C\c1ccc([N+](=O)[O-])o1)c1nc2ccccc2[nH]1`, the half-maximal effective concentration (EC50) in experiment [5] is 5.9 µM (inconclusive); in experiment [7], > 150 µM (inconclusive); in experiment [8], 1.01 µM (active); in [9] it was 3.64 µM (active); in experiment [10], 0.985 µM (active); in experiment [11] it was > 150 µM (inconclusive). For the same compound, in [12], the EC50 was 2.27 µM (inconclusive). The AC50 in experiment [6] is 3.02 µM (active).

For `N#CC(C#N)=Cc1c2ccccc2cc2ccccc12`, the half-inhibitory concentration (IC50) in experiment [13] and in [14] was > 50 µM (not active) each time.

On to `CCOC(=O)C1=C(c2ccccc2)OC(N)=C(C#N)C1C1CCCCC1` (stereo unspecified), for which, in experiment [15], the IC50 is > 69.5 µM (not active).

As for `O=[N+]([O-])c1ccccc1C1Nc2cccc3cccc(c23)N1`, the CC50 in [16] was > 99 µM (not active); in experiment [18] it was 14.6 µM (active). Also, the IC50 in experiment [17] was 27.2 µM (active).

For `Cc1ccc(COC(=O)c2nn(-c3ccccc3)nc2N)cc1`, the IC50 in [19] is 12 µM (not active); in [20], 10.6 µM (not active).

With `Cc1ccc(C)c(NS(=O)(=O)c2cc(C(=O)Nc3ccccc3-c3ccccc3)ccc2C)c1`, the IC50 is > 35 µM (not active) in experiment [21] and 0.298 µM (active) in [22].

For the compound `CCOc1ccccc1-c1nc(-c2ccc(NC(=O)c3ccc(Br)o3)cc2)no1`, the EC50 in experiment [23] was 12.7 µM (active).

Regarding `Cc1cc(C(=O)OCC(=O)c2c(N)n(C)c(=O)n(C)c2=O)c(C)n1-c1ccccc1`, the values for the IC50 in experiment [24] and in [25] were > 111 µM (not active) and 13.1 µM (not active), respectively.

As to `CC(C)NC(=O)/C(C#N)=C\c1ccc(N(C)C)o1`, the EC50 in experiment [26] was > 100 µM (active).

`C=CCn1c(COc2ccc3c(c2)CCCC3)nnc1SCC(=O)Nc1cccc(SC)c1`: the IC50 in [27] is > 100 µM (active).

On to `Cn1cnnc1SCc1ccc(C(=O)N/N=C(\CCC(=O)O)c2ccc(C(C)(C)C)cc2)cc1`, for which the IC50 in [28] and in [30] was > 50 µM (not active) in each case. The AC50 in experiment [29] was 0.755 µM (active).

As to `COc1cc(-c2nc(-c3ccccc3)c(-c3ccccc3)[nH]2)cc(OC)c1O`, the concentration for half-maximal inhibition (IC50) in experiment [31] was 0.517 µM (active).

The values above are taken from ChEMBL document CHEMBL1201862, “PubChem BioAssay data set” (2004).
